Experimental data from US8795691B2, “Nanotubes and compositions thereof” (Brown University, priority 2010, dated 2014).

Tests used:
Type in all cases: cell-based
[1] = tested on: human fetal osteoblast cell line (ATCC, CRL-11372); experiment: Osteoblast adhesion on RNT-coated titanium; settings: coated on Ti, 4 h, FIG. 5
Protocol: (§1) Titanium (Ti) (1 cm×1 cm×0.05 cm) (Alfa Aesar Ti foil) and glass coverslips were soaked in acetone for 15 min, sonicated for 15 min in acetone, and rinsed with dH2O. They were then soaked and sonicated in 70% ethanol and rinsed with dH2O. Lastly, they were soaked and sonicated in dH2O for another 15 min and rinsed. The glass was then etched in 1 M NaOH for 1 h and thoroughly rinsed in dH2O. All of the Ti and glass coverslips were oven-dried overnight and autoclaved for sterilization. The day before cell seeding, the cleaned Ti substrates were coated with the various RNTs (0.01 mg/mL) and KRSR peptide (0.01 mg/mL) solutions for 45 min at room temperature. They were then removed from the solutions and air-dried overnight. […]
(§2) Osteoblasts, fibroblasts and endothelial cells were seeded onto the substrates at a density of 3500 cells/cm^2 and were incubated in the cell culture medium (specifically, DMEM supplemented with FBS and P/S for osteoblasts, EMEM supplemented with FBS for fibroblasts and MCDB-131 complete medium for endothelial cells) for 4 h. […] The cell density was then determined by counting cells using Image Pro Analyzer. […]
(§3) Data are presented as the mean value±the standard error of the mean and were analyzed with a student's t-test to make pair-wise comparisons. […]

[2] = tested on: rat skin fibroblast cell line (FR, ATCC, CRL-1213); experiment: Fibroblast adhesion on RNT-coated titanium; settings: 4 h, FIG. 7
Protocol: as §1, §2, §3

[3] = tested on: Rat aortic endothelial cells (RAEC); experiment: Endothelial cell adhesion on RNT-coated titanium; settings: coated on Ti, 4 h, FIG. 9
Protocol: as §1, §2, §3

lysine-arginine-serine-argine (KRSR) [KRSR peptide]
osteoblast adhesion (in words) [1]: promoted more osteoblast cell adhesion relative to uncoated Ti
fibroblast adhesion compared to uncoated Ti [2]: did not enhance fibroblast adhesion
endothelial cell adhesion / density [3]: did not enhance endothelial cell adhesion
